# Results taken from patent US10301267B2, “Compounds” (AstraZeneca AB, priority 2006, dated 2019).
# pIC50: −log10 of the molar value.
# Target: FGFR1 active kinase (Homo sapiens, UniProt P11362)
# Test: FGFR Kinase assay - Caliper Echo Dosing
# Assay type: biochemical
# Details: FGFR1 7.2 nM, 408 uM ATP, acoustic dosing; geometric mean of n
# Procedure: FGFR Kinase Assay—Caliper Echo Dosing
# To determine inhibition of FGFR activity, kinase assays were conducted using Caliper technology.
# Kinase activity assays were performed in Greiner 384-well low volume plates, with a total reaction volume of 12 ul per well. Final concentration of FGFR1 active kinase in each reaction well was 7.2 nM. The substrate for each assay was a custom peptide with fluorescent tag (13 amino acids in length, […] with the fluorescene tag on the first K).
# Compounds were dispensed directly in to assay plates using a Labcyte Echo 550 acoustic droplet ejection unit. Each well received 120 nl of DMSO containing compound such that the final concentration of compound in the assay prior to the addition of the stop solution ranged between 30 uM and 30 pM. In addition to compounds each plate carried maximum and minimum control wells, the max wells contained 120 nl of DMSO and the min wells contained 120 nl of 10 mM staurosporine (LC Laboratories, MA 01801, USA Catalogue No. S-9300). The Enzyme (at 7.2 nM [final]) and Substrate (at 3.6 uM [final]) were added separately to the compound plates, in reaction buffer [comprising: 50 mM MOPS (Sigma, Catalogue No. M1254)—pH 6.5, 0.004% Triton (Sigma, Catalogue No. X-100), 2.4 mM DTT, 12 mM MgCl2, 408 uM ATP] resulting in a final DMSO concentration in the reaction mix of 1%.
# Assay plates were incubated at room temperature for 1.5 h, before the reaction was stopped with the addition of buffer [comprising: 100 mM HEPES—pH7.5, 0.033% Brij-35 (Sigma Catalogue No. B4184), 0.22% Caliper Coating Reagent #3 (Caliper Life Sciences Catalogue No. 760050), 88 mM EDTA, 5% DMSO]. Stopped assay plates were then read using the Caliper LabChip® LC3000 (which uses microfludics to measure a shift in mobility between fluorescent labelled peptide and the FGFR1 kinase—phosphorylated form of this peptide).
# In the assay, compounds were tested at a range of concentrations. […] Percentage inhibition at 1 uM, as expressed herein, is a calculated value based on the curve fit that was generated experimentally. From the fitted curve plot, the effect of compound at a concentration of 1 uM was calculated as a percentage inhibition. The IC50 is the concentration of compound, which inhibits FGFR1 kinase activity by 50% in the context of this assay. This value is calculated using a standard curve fitting software package Origin™.
# FGFR1 active kinase, sequence (P11362 22-822): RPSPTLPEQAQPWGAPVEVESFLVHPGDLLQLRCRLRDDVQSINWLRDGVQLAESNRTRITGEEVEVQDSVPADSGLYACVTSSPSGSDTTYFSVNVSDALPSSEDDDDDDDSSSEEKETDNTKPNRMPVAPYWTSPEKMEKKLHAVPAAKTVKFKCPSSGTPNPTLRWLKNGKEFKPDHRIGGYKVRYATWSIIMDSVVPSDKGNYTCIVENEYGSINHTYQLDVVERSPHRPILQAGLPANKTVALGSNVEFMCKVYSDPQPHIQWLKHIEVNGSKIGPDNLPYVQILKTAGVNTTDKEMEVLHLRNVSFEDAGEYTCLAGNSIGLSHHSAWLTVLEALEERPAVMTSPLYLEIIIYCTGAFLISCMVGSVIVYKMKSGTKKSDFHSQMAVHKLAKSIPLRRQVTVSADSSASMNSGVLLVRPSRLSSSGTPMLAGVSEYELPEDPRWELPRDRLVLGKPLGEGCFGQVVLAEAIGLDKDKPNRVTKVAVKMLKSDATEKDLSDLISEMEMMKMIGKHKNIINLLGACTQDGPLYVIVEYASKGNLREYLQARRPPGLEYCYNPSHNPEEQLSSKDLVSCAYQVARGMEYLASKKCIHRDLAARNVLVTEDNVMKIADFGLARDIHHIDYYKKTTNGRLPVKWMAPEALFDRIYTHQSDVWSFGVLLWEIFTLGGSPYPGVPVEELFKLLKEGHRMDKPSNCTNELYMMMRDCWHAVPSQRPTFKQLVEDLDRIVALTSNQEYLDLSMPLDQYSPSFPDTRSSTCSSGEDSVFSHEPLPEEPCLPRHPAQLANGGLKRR
row,pIC50,Structure (SMILES)
1,8.96,"COc1cc(COc2cc(NC(=O)c3ccc(N4CCN(C)CC4)s3)[nH]n2)cc(OC)c1 [Example 107, N-[5-[(3,5-dimethoxyphenyl)methoxy]-2H-pyrazol-3-yl]-5-(4-methylpiperazin-1-yl)thiophene-2-carboxamide]"
2,8.70,"COc1cc(CCc2cc(NC(=O)c3cnc(N4CCNC(C)(C)C4)cn3)[nH]n2)cc(OC)c1 [Example 108, N-[5-[2-(3,5-dimethoxyphenyl)ethyl]-2H-pyrazol-3-yl]-5-(3,3-dimethylpiperazin-1-yl)pyrazine-2-carboxamide]"
3,8.52,"COc1cc(COc2cc(NC(=O)c3cnc(N4CCN(C5CC5)CC4)cn3)[nH]n2)cc(OC)c1 [Example 109, 5-(4-Cyclopropylpiperazin-1-yl)-N-[5-[(3,5-dimethoxyphenyl)methoxy]-2H-pyrazol-3-yl]pyrazine-2-carboxamide]"
4,9.17,"COc1cc(COc2cc(NC(=O)c3ccc(N4C[C@@H](C)N(C)[C@@H](C)C4)cc3)[nH]n2)cc(OC)c1 [Example 110, N-[5-[(3,5-dimethoxyphenyl)methoxy]-2H-pyrazol-3-yl]-4-[(3R,5S)-3,4,5-trimethylpiperazin-1-yl]benzamide]"
5,9.12,"COc1cc(COc2cc(NC(=O)c3ccc(N4CCNC(C)(C)C4)cc3)[nH]n2)cc(OC)c1 [Example 111, N-[5-[(3,5-dimethoxyphenyl)methoxy]-2H-pyrazol-3-yl]-4-(3,3-dimethylpiperazin-1-yl)benzamide]"
6,8.77,"COc1cc(CCc2cc(NC(=O)c3cnc(N4C[C@@H](C)N[C@@H](C)C4)cn3)[nH]n2)cc(OC)c1 [Example 112, N-[5-[2-(3,5-dimethoxyphenyl)ethyl]-2H-pyrazol-3-yl]-5-[(3R,5S)-3,5-dimethylpiperazin-1-yl]pyrazine-2-carboxamide]"
7,8.64,"COc1cc(CCc2cc(NC(=O)c3cnc(N4CCN(C5CC5)CC4)cn3)[nH]n2)cc(OC)c1 [Example 113, 5-(4-Cyclopropylpiperazin-1-yl)-N-[5-[2-(3,5-dimethoxyphenyl)ethyl]-2H-pyrazol-3-yl]pyrazine-2-carboxamide]"
8,8.80,"COc1cc(CCc2cc(NC(=O)c3cnc(N4CCN5CCCC5C4)cn3)[nH]n2)cc(OC)c1 (stereo not drawn) [Example 114, 5-(3,4,6,7,8,8a-hexahydro-1H-pyrrolo[2,1-c]pyrazin-2-yl)-N-[5-[2-(3,5-dimethoxyphenyl)ethyl]-2H-pyrazol-3-yl]pyrazine-2-carboxamide]"
9,8.64,"COc1cc(COc2cc(NC(=O)c3cnc(N4CCN5CCCCC5C4)cn3)[nH]n2)cc(OC)c1 (stereo not drawn) [Example 115, 5-(1,3,4,6,7,8,9,9a-Octahydropyrido[2,1-c]pyrazin-2-yl)-N-[5-[(3,5-dimethoxyphenyl)methoxy]-2H-pyrazol-3-yl]pyrazine-2-carboxamide]"
10,9.03,"COc1cc(COc2cc(NC(=O)c3ccc(N4CCN(C5CC5)CC4)cc3)[nH]n2)cc(OC)c1 [Example 116, 4-(4-cyclopropylpiperazin-1-yl)-N-[5-[(3,5-dimethoxyphenyl)methoxy]-2H-pyrazol-3-yl]benzamide]"
11,8.89,"COc1cc(CCc2cc(NC(=O)c3ccc(N4CC[N+](C)([O-])CC4)cc3)[nH]n2)cc(OC)c1 [Example 117, N-[5-[2-(3,5-Dimethoxyphenyl)ethyl]-2H-pyrazol-3-yl]-4-(4-methyl-4-oxidopiperazin-4-ium-1-yl)benzamide]"
12,8.96,"COc1cc(COc2cc(NC(=O)c3ccc(N4CCN(C5CCC5)CC4)cc3)[nH]n2)cc(OC)c1 [Example 118, 4-(4-Cyclobutylpiperazin-1-yl)-N-[5-[(3,5-dimethoxyphenyl)methoxy]-2H-pyrazol-3-yl]benzamide]"
13,8.48,"COc1cc(COc2cc(NC(=O)c3cnc(N4CCN5CCCCC5C4)nc3)[nH]n2)cc(OC)c1 (stereo not drawn) [Example 119, 2-(1,3,4,6,7,8,9,9a-Octahydropyrido[2,1-c]pyrazin-2-yl)-N-[5-[(3,5-dimethoxyphenyl)methoxy]-2H-pyrazol-3-yl]pyrimidine-5-carboxamide]"
14,9.01,"COc1cc(CCc2cc(NC(=O)c3ccc(N4CCN5CCCC5C4)s3)[nH]n2)cc(OC)c1 (stereo not drawn) [Example 120, 5-(3,4,6,7,8,8a-hexahydro-1H-pyrrolo[2,1-c]pyrazin-2-yl)-N-[5-[2-(3,5-dimethoxyphenyl)ethyl]-2H-pyrazol-3-yl]thiophene-2-carboxamide]"
15,9.10,"COc1cc(COc2cc(NC(=O)c3ccc(N4CCN5CCCC5C4)s3)[nH]n2)cc(OC)c1 (stereo not drawn) [Example 121, 5-(3,4,6,7,8,8a-hexahydro-1H-pyrrolo[2,1-c]pyrazin-2-yl)-N-[5-[(3,5-dimethoxyphenyl)methoxy]-2H-pyrazol-3-yl]thiophene-2-carboxamide]"
16,8.89,"COc1cc(COc2cc(NC(=O)c3cnc(N4CCN5CCCC5C4)cn3)[nH]n2)cc(OC)c1 (stereo not drawn) [Example 122, 5-(3,4,6,7,8,8a-Hexahydro-1H-pyrrolo[2,1-c]pyrazin-2-yl)-N-[5-[(3,5-dimethoxyphenyl)methoxy]-2H-pyrazol-3-yl]pyrazine-2-carboxamide]"
17,8.66,"COc1cc(CCc2cc(NC(=O)c3cnc(N4CCN(C)C(C)C4)cn3)[nH]n2)cc(OC)c1 (stereo not drawn) [Example 123, N-[5-[2-(3,5-Dimethoxyphenyl)ethyl]-2H-pyrazol-3-yl]-5-(3,4-dimethylpiperazin-1-yl)pyrazine-2-carboxamide]"
18,8.82,"COc1cc(COc2cc(NC(=O)c3cnc(N4CCN(C)C(C)C4)cn3)[nH]n2)cc(OC)c1 (stereo not drawn) [Example 124, N-[5-[(3,5-Dimethoxyphenyl)methoxy]-2H-pyrazol-3-yl]-5-(3,4-dimethylpiperazin-1-yl)pyrazine-2-carboxamide]"
19,8.77,"COc1cc(CCc2cc(NC(=O)c3cnc(N4C[C@@H](C)N(C)[C@@H](C)C4)cn3)[nH]n2)cc(OC)c1 [Example 125, N-[5-[2-(3,5-dimethoxyphenyl)ethyl]-2H-pyrazol-3-yl]-5-[(3R,5S)-3,4,5-trimethylpiperazin-1-yl]pyrazine-2-carboxamide]"
20,8.44,"COc1cc(CCc2cc(NC(=O)c3cnc(N4CCN(C5CC5)CC4)nc3)[nH]n2)cc(OC)c1 [Example 126, 2-(4-cyclopropylpiperazin-1-yl)-N-[5-[2-(3,5-dimethoxyphenyl)ethyl]-2H-pyrazol-3-yl]pyrimidine-5-carboxamide]"
21,8.54,"COc1cc(CCc2cc(NC(=O)c3cnc(N4CCN5CCCCC5C4)nc3)[nH]n2)cc(OC)c1 (stereo not drawn) [Example 127, 2-(1,3,4,6,7,8,9,9a-octahydropyrido[2,1-c]pyrazin-2-yl)-N-[5-[2-(3,5-dimethoxyphenyl)ethyl]-2H-pyrazol-3-yl]pyrimidine-5-carboxamide]"
22,8.52,"COc1cc(CCc2cc(NC(=O)c3cnc(N4CCN5CCCC5C4)nc3)[nH]n2)cc(OC)c1 (stereo not drawn) [Example 128, 2-(3,4,6,7,8,8a-hexahydro-1H-pyrrolo[2,1-c]pyrazin-2-yl)-N-[5-[2-(3,5-dimethoxyphenyl)ethyl]-2H-pyrazol-3-yl]pyrimidine-5-carboxamide]"
23,8.46,"COc1cc(CCc2cc(NC(=O)c3cnc(N4C[C@@H](C)N(CC#N)[C@@H](C)C4)cn3)[nH]n2)cc(OC)c1 [Example 129, 5-[(3R,5S)-4-(cyanomethyl)-3,5-dimethylpiperazin-1-yl]-N-[5-[2-(3,5-dimethoxyphenyl)ethyl]-2H-pyrazol-3-yl]pyrazine-2-carboxamide]"
24,9.23,"COc1cc(COc2cc(NC(=O)c3cnc(N4C[C@@H](C)N(C)[C@@H](C)C4)cn3)[nH]n2)cc(OC)c1 [Example 130, N-[5-[(3,5-dimethoxyphenyl)methoxy]-2H-pyrazol-3-yl]-5-[(3R,5S)-3,4,5-trimethylpiperazin-1-yl]pyrazine-2-carboxamide]"
25,8.46,"COc1cc(COc2cc(NC(=O)c3cnc(N4C[C@@H](C)N(CC#N)[C@@H](C)C4)cn3)[nH]n2)cc(OC)c1 [Example 131, 5-[(3R,5S)-4-(cyanomethyl)-3,5-dimethylpiperazin-1-yl]-N-[5-[(3,5-dimethoxyphenyl)methoxy]-2H-pyrazol-3-yl]pyrazine-2-carboxamide]"
26,8.44,"COc1cc(COc2cc(NC(=O)c3cnc(N4CCN(C)C(C)C4)nc3)[nH]n2)cc(OC)c1 (stereo not drawn) [Example 132, N-[5-[(3,5-dimethoxyphenyl)methoxy]-2H-pyrazol-3-yl]-2-(3,4-dimethylpiperazin-1-yl)pyrimidine-5-carboxamide]"
27,8.41,"COc1cc(COc2cc(NC(=O)c3cnc(N4CCN(C5CC5)CC4)nc3)[nH]n2)cc(OC)c1 [Example 133, 2-(4-cyclopropylpiperazin-1-yl)-N-[5-[(3,5-dimethoxyphenyl)methoxy]-2H-pyrazol-3-yl]pyrimidine-5-carboxamide]"
